Assay results from publication PMC9229563, “Pharmacokinetics and the Dermal Absorption of Bromochlorophene, a Cosmetic Preservative Ingredient, in Rats” (Toxics, 2022).
Read-outs that look alike come from different tables or passages of the source.

Tests used:
[1] = Dermal pharmacokinetics / in vivo dermal absorption in rats; set-up: species or system rat
Method: Blood samples (approximately 0.2 mL) were taken periodically by cannulated right jugular vein at 15 and 30 min, and 1, 2, 4, 8, 12, 24, 36, and 48 h post-dose. […] To analyze the in vivo (dermal and i.v. application) samples, 50 µL of the plasma was used, and extraction and analysis methods were the same as in vitro samples. […] The slope of the last phase (λz) is the individual estimate of the terminal elimination rate constant, which is calculated using log-linear regression of the terminal portions of the plasma concentration–time curves. The area under the plasma concentration–time curve from time zero to the last observation time point (AUCall) was calculated using the trapezoidal rule, and the AUC to infinity time (AUCinf) was obtained by adding Cn/λz to the AUCall (Cn: last concentration of chemical). Systemic clearance (CL) was calculated as dose/AUC. The apparent volume of the distribution (Vd) during the terminal phase was calculated as CL/λz. The peak plasma concentration (Cmax) and time to reach Cmax (Tmax) were determined directly from these observations. […] The plasma concentration–time data were analyzed using a non-compartmental WinNonlin model (version 2.1, Pharsight, NC, USA) to acquire i.v. and dermal pharmacokinetic parameters.

[2] = Stability of BCP in receptor fluid (6% POE20); format: physicochemical; details: 0.5 mg/mL, 48 h, 32 °C, sink conditions, n = 3
Method: The in vitro dermal absorption study followed the guidelines of the Korea Ministry of Food and Drug Safety [15] with a Franz diffusion cell system consisting of a vision Microette auto-sampler, stirring drive, circulating water bath, stirring control, and autofill (Hanson, Chatsworth, CA, USA). The volume of the receptor fluid chamber was 12 mL and the temperature of the receptor fluid was maintained in a circulating water bath at 32 °C. […] The skin, after hydrating with normal saline for 5 min, was then placed between the donor and receptor compartments of the diffusion cells. […] Each formulation (~200 mg) was applied to 1.77 cm^2 of the donor chamber.

yeasts / moulds = tested on: yeasts / moulds; set-up: method as in Table S1; details: ref Table S1; cited from earlier work
[3] = cited from earlier work
gram-negative bacteria = tested on: gram-negative bacteria; set-up: method as in Table S1; details: ref Table S1; cited from earlier work
thyroid receptor β = tested on: thyroid receptor β; set-up: method as in PMID 33064576; details: in silico and in vitro studies; cited from earlier work
[4] = Intravenous pharmacokinetics in rats; format: in vivo; details: rat; for half-life / AUC / AUC(0-inf) / clearance / Cmax / Vd: plasma, iv, n = 3; for half-life: glycerol formal, read-out: T1/2, terminal elimination half-life (converted); for clearance: read-out: CL, systemic clearance (converted); for Cmax: read-out: Cmax, peak plasma concentration; for Vd: read-out: Vd, volume of distribution
Method: Blood samples (>0.2 mL) for plasma were collected by cannulated right jugular vein at 1, 2, 5, 10, and 30 min, and 1, 2, 4, 6, 12, 24, 36, and 48 h post-dose. Plasma samples were harvested by centrifugation at 13,000 rpm for 10 min and stored at −20 °C until analysis.
To analyze the in vivo (dermal and i.v. application) samples, 50 µL of the plasma was used, and extraction and analysis methods were the same as in vitro samples.
In the in vivo study, the terminal elimination half-life (T1/2) was calculated to be 0.693/λz. The slope of the last phase (λz) is the individual estimate of the terminal elimination rate constant, which is calculated using log-linear regression of the terminal portions of the plasma concentration–time curves. The area under the plasma concentration–time curve from time zero to the last observation time point (AUCall) was calculated using the trapezoidal rule, and the AUC to infinity time (AUCinf) was obtained by adding Cn/λz to the AUCall (Cn: last concentration of chemical). Systemic clearance (CL) was calculated as dose/AUC. The apparent volume of the distribution (Vd) during the terminal phase was calculated as CL/λz. The peak plasma concentration (Cmax) and time to reach Cmax (Tmax) were determined directly from these observations. The relative bioavailability (F) after dermal application was calculated as F (%) = 100 (Doseiv·AUCdermal)/(Dosedermal·AUCiv).
The plasma concentration–time data were analyzed using a non-compartmental WinNonlin model (version 2.1, Pharsight, NC, USA) to acquire i.v. and dermal pharmacokinetic parameters.

gram-positive bacteria = tested on: gram-positive bacteria; set-up: method as in Table S1; details: ref Table S1; cited from earlier work
thyroid receptor α = tested on: thyroid receptor α; set-up: method as in PMID 33064576; details: in silico and in vitro studies; cited from earlier work
estrogen receptor α = tested on: estrogen receptor α; set-up: method as in PMID 33064576; details: in silico and in vitro studies; cited from earlier work
androgen receptor = tested on: androgen receptor; set-up: method as in PMID 33064576; details: in silico and in vitro studies; cited from earlier work
[5] = set-up: method as in PMID 34335256; details: hydrogel formulation, 0.262 mg/kg rat dorsal application; cited from earlier work
glucocorticoid receptor = tested on: glucocorticoid receptor; set-up: method as in PMID 33064576; details: in silico and in vitro studies; cited from earlier work
[6] = set-up: method as in Table S1; details: ref Table S1; cited from earlier work
[7] = set-up: method as in PMID 34335256; details: female rats, oral, 28 days, 500 and 1000 mg/kg; cited from earlier work

For `Oc1c(Br)cc(Cl)cc1Cc1cc(Cl)cc(Br)c1O` [BCP, 2,2'-Methylenbis (6-bromo-4-chlorophenol)], the “Representative (total) dermal absorption of BCP” value ([1]; determined from the in vivo PK / dermal study in rats) was 12.20 ± 2.63%, the bioavailability ([1]; rat, plasma, topical, 234 mg/kg formulation, read-out: F, dermal bioavailability) was 12.2 ± 2.63% and the “Stability in 6% POE20” value [2] was “stable”. The “Effect of preservative, yeasts / moulds” value (yeasts / moulds) was “inadequate”, the LogPow ([3]; ref Table S1) was 6.12 and the “Effect of preservative, gram-negative bacteria” value (gram-negative bacteria) was “moderate”. The “Action on thyroid receptor β” value (thyroid receptor β) was “antagonist”, the half-life ([4]; i.v. 0.2 mg/kg) was 34.5 ± 5.87 h and the AUC ([4]; i.v. 0.2 mg/kg) was 4190 ± 320 ng·h/mL. For the same compound, the AUC(0-inf) ([4]; i.v. 0.2 mg/kg) was 5860 ± 767 ng·h/mL, the clearance ([4]; i.v. 0.2 mg/kg) was 0.576 mL/min/kg and the Cmax ([4]; i.v. 0.2 mg/kg) was 4190 ± 1690 ng/mL. For the same compound, the Vd ([4]; i.v. 0.2 mg/kg) was 1.74 ± 0.072 L/kg, the half-life ([4]; i.v. 1 mg/kg) was 30.5 ± 1.83 h and the AUC ([4]; i.v. 1 mg/kg) was 30500 ng·h/mL. For the same compound, the AUC(0-inf) ([4]; i.v. 1 mg/kg) was 41600 ng·h/mL, the clearance ([4]; i.v. 1 mg/kg) was 0.401 mL/min/kg and the Cmax ([4]; i.v. 1 mg/kg) was 11400 ng/mL. The Vd ([4]; i.v. 1 mg/kg) was 1.06 ± 0.0502 L/kg, the “AUCs (AUCall and AUCinf) in plasma at 1 mg/kg versus 0.2 mg/kg” value ([4]; i.v.) was “approximately 7 fold” and the “Effect of preservative, gram-positive bacteria” value (gram-positive bacteria) was “good”. The “Action on thyroid receptor α” value (thyroid receptor α) was “antagonist”, the “Action on estrogen receptor α” value (estrogen receptor α) was “antagonist” and the “Action on androgen receptor” value (androgen receptor) was “antagonist”. For the same compound, the BCP absorption [5] was 29.25 ± 6.09%, the “Action on glucocorticoid receptor” value (glucocorticoid receptor) was “antagonist” and the Solubility in water [6] was under 5 µg/mL. The “Hematological and histopathological characteristics” value [7] was “altered”.
For `COc1ccc(C(=O)c2ccccc2)c(O)c1` [benzophenone-3], the LogPow [3] is listed as 3.58.
For `CCCCC(CC)COC(=O)C=Cc1ccc(OC)cc1` (centres unmarked) [ethylhexyl methoxycinnamate], the LogPow [3] is listed as 5.96.
In the case of `CC1CC(OC(=O)c2ccccc2O)CC(C)(C)C1` (centres unmarked) [homosalate], the LogPow [3] is given as 5.94.
In the case of `C[C@]12CC[C@H]3[C@@H](CCC4=CC(=O)CC[C@@]43C)[C@@H]1CC[C@@H]2O` [testosterone, reference compound], the LogPow [3] is listed as 3.3.
